Data set [1] can be described thus: Inhibition of recombinant cytosolic PLA2alpha assessed as inhibition of cleavage of soluble fluorogenic substrate.
Data set [2] in a line: Inhibition of cytosolic PLA2alpha in human differentiated HL60 cells assessed as inhibition of A23187-induced [3H]-arachidonate release. Type of data set: cell-based. Particulars: HL-60.
The subject of a further data set is Hepatocyte. Kind of data set: Intrinsic clearance in rat hepatocytes. In kind it is ADME, cell-based, Liver.
Data set [3] in a line: Clearance in rat at 2 mg/kg, iv. Type of data set: ADME, organism-based. Details: dose 2 mg/kg, route intravenous. The note with it: in vivo.
Data set [4] in a line: Half life in rat plasma at 2 mg/kg, iv. Type of data set: ADME, organism-based. Set-up: dose 2 mg/kg, route intravenous.
The nature of data set [5]: Volume of distribution at steady state in rat at 2 mg/kg, iv. Details: dose 2 mg/kg, route intravenous. Particulars: in vivo, read-out: Vdss. In kind it is ADME, organism-based.

As to `O=C(COc1ccc(SCCCCCc2ccccc2)cc1)c1nccs1`, the IC50 (as a rule, the concentration that inhibits the measured activity by half) in data set [1] is 1000 nM; in data set [2], more than 10000 nM.

Regarding `O=C(COc1ccc(SCCCCCc2ccccc2)cc1)c1ncc[nH]1`, in data set [1], the IC50 is more than 10000 nM.

For `Cn1ccnc1C(=O)COc1ccc(SCCCCCc2ccccc2)cc1`, the IC50 in data set [1] is more than 10000 nM.

`Cn1c(C(=O)COc2ccc(SCCCCCc3ccccc3)cc2)nc2ccccc21`: the concentration for half-maximal inhibition (IC50) in data set [1] was more than 10000 nM.

As to `O=C(COc1ccc(SCCCCCc2ccccc2)cc1)c1nc2ccccc2s1`, the 50% inhibitory concentration (IC50) in data set [1] was 1000 nM.

`O=C(O)c1ccc2nc(C(=O)COc3ccc(SCCCCCc4ccccc4)cc3)[nH]c2c1`: the IC50 in data set [1] was 2700 nM; in data set [2], 3700 nM.

Turning to `O=C(O)COc1ccc2nc(C(=O)COc3ccc(SCCCCCc4ccccc4)cc3)[nH]c2c1`, the half-maximal inhibitory concentration (IC50) in data set [1] and in data set [2] was more than 10000 nM throughout.

In the case of `O=C(O)c1ccc2oc(C(=O)COc3ccc(SCCCCCc4ccccc4)cc3)nc2c1`, the IC50 in data set [1] worked out at 140 nM; in data set [2] it was 3600 nM. Further, the CL in the data set on Hepatocyte amounted to 35 µL/min. In addition, the clearance (as a rule, a measure of how efficiently the substance is removed, as volume per time) in data set [3] was more than 200 mL/min/kg. In addition, in data set [4], the half-life – broadly, the time in which the quantity being followed falls by half – is less than 0.2 h.

As for `O=C(O)c1ccc2nc(C(=O)COc3ccc(SCCCCCc4ccccc4)cc3)sc2c1`, the 50% inhibitory concentration (IC50) in data set [1] worked out at 80 nM; in data set [2], 1600 nM. Further, the CL in the data set on Hepatocyte was found to be 28 µL/min.

For `COc1ccc2nc(C(=O)COc3ccc(SCCCCCc4ccccc4)cc3)sc2c1`, the IC50 in data set [1] is more than 10000 nM.

With `Cc1nc(C(=O)COc2ccc(SCCCCCc3ccccc3)cc2)sc1C(=O)O`, the 50% inhibitory concentration (IC50) in data set [1] was found to be 300 nM; in data set [2], 1100 nM. For the same compound, the CL in the data set on Hepatocyte worked out at 11 µL/min.

Consider `Cc1nc(C(=O)COc2ccc(SCCCCCc3ccccc3)cc2)sc1CCC(=O)O`, for which the IC50 in data set [1] and in data set [2] was 500 nM each time.

`Cc1nc(C(=O)COc2ccc(SCCCCCc3ccccc3)cc2)sc1/C=C/C(=O)O`: the IC50 in data set [1] turned out to be 4300 nM; in data set [2], 3000 nM.

For the compound `Cc1nc(C(=O)COc2ccc(SCCCCCc3ccccc3)cc2)sc1CCCC(=O)O`, the IC50 in data set [1] came to 80 nM; in data set [2] it was 500 nM. For the same compound, the clearance in data set [3] amounted to 71 mL/min/kg. In data set [5], the Vd worked out at 0.4 L/kg. The compound further gave a half-life in data set [4] of 0.2 h.

With `O=C(O)CCCc1csc(C(=O)COc2ccc(OCCCCCc3ccccc3)cc2)n1`, the half-maximal inhibitory concentration (IC50) came out at 2000 nM in data set [1] and 6000 nM in data set [2].

On to `Cc1nc(C(=O)COc2ccc(SCCCCCc3ccccc3)cc2)sc1CCO`, for which the IC50 in data set [1] is 280 nM; in data set [2], 1300 nM. In addition, in the data set with Hepatocyte, the CL is 31 µL/min.

As for `Cc1nc(C(=O)COc2ccc(OCCCCCc3ccccc3)cc2)sc1CCCC(=O)O`, the values for the half-maximal inhibitory concentration (IC50) in data set [1] and in data set [2] were 240 nM and 1200 nM, respectively. The CL in the data set on Hepatocyte was 20 µL/min.

For the compound `Cc1nc(C(=O)COc2ccc(SCc3ccccc3)cc2)sc1CCCC(=O)O`, the values for the concentration for half-maximal inhibition (IC50) in data set [1] and in data set [2] were 3000 nM and 2000 nM, respectively.

Consider `CCCCCCCCCCS(=O)(=O)c1ccc(OCC(=O)c2nc(C)c(CCCC(=O)O)s2)cc1`, for which the IC50 in data set [1] came out at 300 nM; in data set [2] it was 200 nM. The CL with Hepatocyte was found to be 41 µL/min.

As to `CCCCCCCCCCSc1ccc(OCC(=O)c2nc(C)c(CCCC(=O)O)s2)cc1`, the IC50 in data set [1] worked out at 40 nM; in data set [2], 230 nM.

As to `Cc1nc(C(=O)C(C)Oc2ccc(SCCCCCc3ccccc3)cc2)sc1CCCC(=O)O` (stereo unspecified), the figures for the IC50 in data set [1] and in data set [2] were 200 nM and 700 nM, respectively.

For the compound `Cc1nc(C(=O)C(C)(C)Oc2ccc(SCCCCCc3ccccc3)cc2)sc1CCCC(=O)O`, the IC50 in data set [1] was 6700 nM; in data set [2], more than 10000 nM.

On to `CCC(Oc1ccc(SCc2ccc(Cl)cc2)cc1)C(=O)c1nc(C)c(CCCC(=O)O)s1` (stereo unspecified), for which, in data set [1], the IC50 was 7900 nM.

`Cc1nc(C(=O)C(Oc2ccc(SCCCCCc3ccccc3)cc2)C(C)C)sc1CCCC(=O)O` (stereo unspecified): the concentration for half-maximal inhibition (IC50) worked out at 4400 nM in data set [1] and 5600 nM in data set [2].

In the case of `Cc1nc(C(=O)C(Oc2ccc(SCCCCCc3ccccc3)cc2)c2ccccc2)sc1CCCC(=O)O` (stereo unspecified), the IC50 was 3600 nM in data set [1] and 3200 nM in data set [2].

In the case of `Cc1nc(C(=O)C(C)Oc2ccc(OCCCCCc3ccccc3)cc2)sc1CCCC(=O)O` (stereo unspecified), the IC50 in data set [1] worked out at 700 nM; in data set [2], 2000 nM. Also, the CL in the data set with Hepatocyte turned out to be 10 µL/min. In data set [3], this compound yielded a clearance of 10.5 mL/min/kg. The Vd in data set [5] is 0.35 L/kg. Moreover, the half-life in data set [4] was 1.25 h.

In the case of `Cc1nc(C(=O)C(C)Oc2ccc(SCc3ccc(Cl)cc3)cc2)sc1CCCC(=O)O` (stereo unspecified), the IC50 in data set [1] and in data set [2] was 1500 nM in each case. Besides, the clearance in data set [3] worked out at 10.5 mL/min/kg. In data set [5], the Vd was 0.55 L/kg. Moreover, the half-life in data set [4] is 1.15 h.

With `Cc1nc(C(=O)[C@H](C)Oc2ccc(SCCCCCc3ccccc3)cc2)sc1CCCC(=O)O`, the IC50 in data set [1] is more than 1000 nM.

With `Cc1nc(C(=O)[C@@H](C)Oc2ccc(SCCCCCc3ccccc3)cc2)sc1CCCC(=O)O`, in data set [1], the half-inhibitory concentration (IC50) is 200 nM. In the data set with Hepatocyte, the CL is 8 µL/min.

Turning to `O=C(COc1ccc(SCCCCCc2ccccc2)cc1)COc1ccc(C(=O)O)cc1`, the IC50 in data set [1] was 80 nM; in data set [2], 1500 nM.

(Values after ChEMBL document CHEMBL1770053, “Design of novel and potent cPLA2α inhibitors containing an α-methyl-2-ketothiazole as a metabolically stable serine trap” (Bioorg Med Chem Lett, 2011).)
